Measured values from ChEMBL document CHEMBL1201862, “PubChem BioAssay data set” (2004).
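Exposure lasted 48 hours, with cells grown in 96-well plates and compounds tested at five concentrations. GI50 marks 50% less growth.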 Active and inactive are the calls of the source. Rule as the data show it: active = GI50 up to about 1.1 µM and inactive = higher.

What was measured:
Test in all cases: inhibition of tumour cell growth, NCI panel, 48 h
NCI-H522 = system: NCI-H522
SR = system: SR
RPMI-8226 = system: RPMI-8226
CCRF-CEM = system: CCRF-CEM
HCT-116 = system: HCT-116
A498 = system: A498
MDA-N = system: MDA-N
SF-268 = system: SF-268
UO-31 = system: UO-31
K562 = system: K562
U-251 = system: U-251
HCC 2998 = system: HCC 2998
PC-3 = system: PC-3
HT-29 = system: HT-29
SW-620 = system: SW-620
Malme-3M = system: Malme-3M
UACC-257 = system: UACC-257
CAKI-1 = system: CAKI-1
Hs-578T = system: Hs-578T
MDA-MB-435 = system: MDA-MB-435
IGROV-1 = system: IGROV-1
MDA-MB-231 = system: MDA-MB-231
SK-MEL-28 = system: SK-MEL-28
OVCAR-5 = system: OVCAR-5
786-0 = system: 786-0
HCT-15 = system: HCT-15
A549 = system: A549
LOX IMVI = system: LOX IMVI
OVCAR-8 = system: OVCAR-8
KM12 = system: KM12
SNB-75 = system: SNB-75
NCI-H23 = system: NCI-H23
MCF7 = system: MCF7
NCI-H460 = system: NCI-H460
SN12C = system: SN12C
OVCAR-4 = system: OVCAR-4
M14 = system: M14
RXF 393 = system: RXF 393
SK-MEL-2 = system: SK-MEL-2
DU-145 = system: DU-145
ACHN = system: ACHN
T47D = system: T47D
EKVX = system: EKVX
COLO 205 = system: COLO 205
SF-295 = system: SF-295
SK-OV-3 = system: SK-OV-3
NCI/ADR-RES = system: NCI/ADR-RES
HL-60 = system: HL-60
HOP-62 = system: HOP-62
NCI-H226 = system: NCI-H226
SF-539 = system: SF-539
MOLT-4 = system: MOLT-4
SK-MEL-5 = system: SK-MEL-5
UACC-62 = system: UACC-62
SNB-19 = system: SNB-19
TK-10 = system: TK-10
BT-549 = system: BT-549
HOP-92 = system: HOP-92
OVCAR-3 = system: OVCAR-3

Measured: GI50

CCOC(=O)/C(=C/NC(=S)Nc1c(CC)cccc1C(C)(C)C)C(=O)c1ccccc1
inactive: NCI-H522 > 100 µM | SR > 100 µM | RPMI-8226 88.9 µM | CCRF-CEM > 100 µM | HCT-116 > 100 µM | A498 > 100 µM | MDA-N > 100 µM | SF-268 > 100 µM | UO-31 14.7 µM | K562 42.2 µM | U-251 > 100 µM | HCC 2998 > 100 µM | PC-3 > 100 µM | HT-29 > 100 µM | SW-620 > 100 µM | Malme-3M > 100 µM | UACC-257 > 100 µM | CAKI-1 > 100 µM | Hs-578T 13.2 µM | MDA-MB-435 > 100 µM | IGROV-1 > 100 µM | MDA-MB-231 > 100 µM | SK-MEL-28 > 100 µM | OVCAR-5 > 100 µM | 786-0 > 100 µM | A549 > 100 µM | LOX IMVI > 100 µM | OVCAR-8 > 100 µM | KM12 > 100 µM | SNB-75 29.3 µM | NCI-H23 > 100 µM | MCF7 88.9 µM | NCI-H460 10 µM | SN12C > 100 µM | OVCAR-4 > 100 µM | M14 > 100 µM | RXF 393 > 100 µM | SK-MEL-2 > 100 µM | DU-145 > 100 µM | ACHN > 100 µM | T47D > 100 µM | EKVX > 100 µM | COLO 205 > 100 µM | SF-295 > 100 µM | SK-OV-3 > 100 µM | NCI/ADR-RES > 100 µM | HL-60 59.3 µM | HOP-62 > 100 µM | NCI-H226 > 100 µM | SF-539 > 100 µM | MOLT-4 > 100 µM | SK-MEL-5 > 100 µM | UACC-62 > 100 µM
> 100 µM: HCT-15

O=C(CC(C(=O)c1ccc(F)cc1)c1ccsc1)c1cccs1 (stereo not given)
inactive: SR 39.4 µM | RPMI-8226 37.6 µM | CCRF-CEM 68.9 µM | HCT-116 60.5 µM | A498 > 100 µM | MDA-N 79.8 µM | SF-268 > 100 µM | UO-31 25.2 µM | K562 > 100 µM | U-251 > 100 µM | HCC 2998 > 100 µM | PC-3 57.9 µM | SNB-19 > 100 µM | HT-29 59.2 µM | SW-620 > 100 µM | TK-10 > 100 µM | Malme-3M 36 µM | UACC-257 70.3 µM | CAKI-1 > 100 µM | Hs-578T > 100 µM | MDA-MB-435 > 100 µM | IGROV-1 > 100 µM | MDA-MB-231 > 100 µM | SK-MEL-28 > 100 µM | OVCAR-5 > 100 µM | 786-0 > 100 µM | A549 74.8 µM | OVCAR-8 > 100 µM | KM12 44.8 µM | SNB-75 94 µM | NCI-H23 32.7 µM | MCF7 82.2 µM | NCI-H460 69.7 µM | SN12C > 100 µM | OVCAR-4 94.8 µM | M14 > 100 µM | SK-MEL-2 > 100 µM | DU-145 > 100 µM | ACHN > 100 µM | T47D 26.7 µM | EKVX 68.9 µM | COLO 205 > 100 µM | SF-295 67.6 µM | SK-OV-3 > 100 µM | NCI/ADR-RES 96.4 µM | HL-60 55.2 µM | HOP-62 > 100 µM | NCI-H226 58.1 µM | SF-539 > 100 µM | MOLT-4 29.6 µM | SK-MEL-5 62.4 µM | UACC-62 > 100 µM
86.9 µM: HCT-15

Cc1ccc(-c2cc(-c3ccccc3)nc(N)n2)c(O)c1
active: SR 0.227 µM
> 22.9 µM: HCT-15
inactive: NCI-H522 5.4 µM | RPMI-8226 3.06 µM | BT-549 > 100 µM | HOP-92 > 64.1 µM | CCRF-CEM 3.4 µM | HCT-116 5.48 µM | A498 > 90.6 µM | MDA-N 4.78 µM | SF-268 > 100 µM | UO-31 > 100 µM | K562 2.09 µM | U-251 42.1 µM | HCC 2998 > 100 µM | PC-3 > 32.9 µM | SNB-19 32.4 µM | HT-29 > 100 µM | SW-620 > 22.7 µM | TK-10 > 60.1 µM | Malme-3M > 100 µM | UACC-257 > 100 µM | CAKI-1 > 74.6 µM | MDA-MB-435 2.86 µM | MDA-MB-231 > 100 µM | SK-MEL-28 > 100 µM | OVCAR-3 > 59.2 µM | OVCAR-5 > 100 µM | 786-0 > 58.1 µM | A549 > 90.4 µM | OVCAR-8 62.4 µM | KM12 7.46 µM | NCI-H23 > 100 µM | MCF7 58.1 µM | NCI-H460 > 27 µM | SN12C > 100 µM | OVCAR-4 > 100 µM | M14 > 100 µM | RXF 393 > 100 µM | SK-MEL-2 > 28.9 µM | DU-145 > 79.4 µM | ACHN > 100 µM | T47D > 100 µM | COLO 205 > 100 µM | SF-295 39.4 µM | SK-OV-3 > 75.7 µM | NCI/ADR-RES > 100 µM | HL-60 2.22 µM | HOP-62 27.6 µM | SF-539 > 60.7 µM | MOLT-4 3.52 µM | SK-MEL-5 6.46 µM | UACC-62 > 78.2 µM
